In assay [1] the target is CCL2_HUMAN (Homo sapiens, UniProt P13500). Nature of the assay: Neutralisation of chemokine induced THP-1 cell migration. The note with it: single concentration of peptide; EC80 CCL2 1.2 nM. It is filed as cell-based. The protocol: (§1) Table 1. Tick CKBPs described in PCT/GB2017/050563 and [17]. Tick peptide sequences isolated in yeast surface display fluorescent-activated cell sorting (FACS) screens using a labelled chemokine. Identity with Evasin-1, 4 or 3 was calculated using BLAST. Abbreviations: IXORI—Ixodes ricinus, RHISA—Rhipicephalus sanguineus, AMBMA—Amblyomma maculatum, AMBPA—Amblyomma parvum, AMBTR—Amblyomma triste, AMBAM—Amblyomma americanum, AMBCA—Amblyomma cajennense, RHIPU—Rhipicephalus pulchellus. Table 2A-C. Binding characteristics of tick CKBPs previously disclosed (PCT/GB2017/050563 and [17]). All members of the human chemokine family[164] are listed in column 1. Binding to human chemokines was determined for 14 tick CKBPs using biolayer interferometry (BLI) with calculated Kd shown as Molar (Moles/Litre). Binding data for 17 other novel tick CKBPs was assayed using yeast surface display[17,166],with positive binding results shown as “YES”. For biolayer interferometry, His-tagged purified tick CKBP was bound to a Ni-NINTA sensor on an OctetRed® 384 system, and then binding to each chemokine listed (with the exception of CCL25, CCL26, CXCL16, CXCL17, CXCL4L1, XCL2) was assayed in a cross-binding screen at a chemokine concentration of 300 nM as described. For those chemokines showing binding to a tick CKBP in the cross-binding screen, binding assays were repeated using different doses of chemokine. Association, equilibrium and dissociation data were analysed using Octet software to create corresponding fitted curves, and used to calculate Kd. For yeast surface display, (YSD) background fluorescence was controlled for by using either an empty vector or by omitting the chemokine (i.e. using streptavidin-Alexa647 alone). An arbitrary threshold of >3 fold over background mean fluorescence intensity was chosen to describe confirmed re-tests. Where binding was detected data are indicated as “YES”. […] For yeast surface display data, empty cells represent chemokines that were not tested. Binding data published in relation to previously described tick CKBPs (Evasins-1, 4 and 3) is also shown for comparison in each of FIGS. 2A-C, with the relevant data obtained from publications: [20-22,32]. Table 3: Neutralisation of human chemokines by tick CKBPs previously disclosed (PCT/GB2017/050563 and [17]). Neutralising activity was determined using a quantitative THP1 cell migration assay in a 96-well Boyden chamber with chemokine in the bottom chamber as described. Cells migrating through to the bottom chamber at 4 hours were counted using flow cytometry in a 96 well plate format. IC50 for neutralisation was determined at the chemokine EC80 dose as determined using a range of tick CKBP concentrations. Data was analysed using GraphPad Prism to determine IC50, which is shown as Molar (Moles/Litre). Empty cells represent experiments not done. Table 4—Other previously described tick CKBPs. Tick CKBPs that were also described in PCT/GB2017/050563 and Singh et al. are indicated in “Notes”. Table 5.—Novel tick CKBPs of the invention. Table 6. […] The peptide sequence prefix indicates the identity, and suffix indicate the tick species as follows: AMBCA, Amblyomma cajennense and IXORI, Ixodes ricinus. […] Individual yeast clones recovered from the library were re-tested using a FACS (fluorescence activated cell sorting), experiment. The binding of the peptide to the chemokine was assayed by measuring the percent (%), of yeast cells expressing the given peptide that exceeded a background threshold set by measuring the fluorescence of the yeast library pool treated with streptavidin-[…] alone. When more than one independent yeast clone was isolated for a given peptide-chemokine combination, the mean percent shift was calculated and reported in column 3.
Sequence of CCL2_HUMAN (P13500 24-99): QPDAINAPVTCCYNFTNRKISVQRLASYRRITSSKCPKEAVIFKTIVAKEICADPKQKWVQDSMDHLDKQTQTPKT

For assay [2], the target named is T1, CCL3_HUMAN (Homo sapiens, UniProt P10147).
T1 sequence (P10147 24-92): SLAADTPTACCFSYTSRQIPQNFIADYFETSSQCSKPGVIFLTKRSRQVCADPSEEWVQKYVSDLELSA
Described as above. The note with it: single concentration of peptide; EC80 CCL3 3.5 nM. It is filed as cell-based. The protocol: as §1

In assay [3] the target is CCL7_HUMAN (Homo sapiens, UniProt P80098). The description is as above. The note with it: single concentration of peptide; EC80 CCL7 7.2 nM. It is filed as cell-based. On the procedure:
as §1

The target in assay [4] is T2, CCL8_HUMAN (Homo sapiens, UniProt P80075).
T2 sequence (P80075 24-99): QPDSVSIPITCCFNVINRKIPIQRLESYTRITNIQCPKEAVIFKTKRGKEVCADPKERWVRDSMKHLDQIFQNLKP
Described as above. It is filed as cell-based. The note with it: single concentration of peptide; EC80 CCL8 5.8 nM. On the procedure:
as §1

Assay [5] addresses T3, human CCL2-647 (Homo sapiens, UniProt P13500).
T3 construct: purchased Almac (UK)
Nature of the assay: Fluorescent chemokine binding to THP-1 cells (flow cytometry). It is filed as cell-based. The note with it: CCL2-647 1.2 nM, read-out: IC50 against CCL2-647 induced THP-1 cellular fluorescence. The protocol:
Data are shown as mean of two technical replicates. […] Curves were fitted with 4 parameters to estimate IC50.
Fluorescent chemokine (conjugated to AlexaFluor-647) binding to THP-1 cells results in an increase in the cellular fluorescence intensity, which is quantitatively measured using flow cytometry.
Fluorescent Chemokine/Receptor Blocking Assay CCL8-647 (2.5 nM, final) or […] (1.2 nM, final) was incubated for 30 minutes with varying doses of peptide (0-100 μM, final concentration) in 50 μL assay buffer (RPMI-1640+L-glutamine (4 mM)+10% heat treated fetal bovine serum+0.2% DMSO) at 37° C. This mixture was then added to 50,000 THP-1 cells in a 96-well v-bottomed plated to give a final volume of 100 μL, and everything incubated together for a further 30 minutes at 37° C. Following this time, the plate was centrifuged, the supernatant flicked off, and the cells resuspended in 150 μL ice cold PBSA. This was repeated twice more and the cells were finally resuspended in 150 μL ice cold PBSA. The median fluorescence intensity of 10,000 cells on the RL-1 channel was determined using an ATTUNE flow cytometer and plotted as function of peptide concentration and the data fitted to an inhibitor response curve with 4 parameters using Graph Pad prism 6. Experiments were performed as two technical and three biological replicates.

The target in assay [6] is T4, CXCL9_HUMAN (Homo sapiens, UniProt Q07325).
T4 sequence (Q07325 23-125): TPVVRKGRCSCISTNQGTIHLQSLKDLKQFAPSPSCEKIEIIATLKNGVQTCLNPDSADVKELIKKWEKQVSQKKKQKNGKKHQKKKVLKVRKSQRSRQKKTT
As to the kind of experiment: Yeast surface display (YSD) FACS binding. The note with it: FACS re-test; mean percent shift where several clones. On the procedure:
Table 1. Tick CKBPs described in PCT/GB2017/050563 and [17]. Tick peptide sequences isolated in yeast surface display fluorescent-activated cell sorting (FACS) screens using a labelled chemokine. Identity with Evasin-1, 4 or 3 was calculated using BLAST. Abbreviations: IXORI—Ixodes ricinus, RHISA—Rhipicephalus sanguineus, AMBMA—Amblyomma maculatum, AMBPA—Amblyomma parvum, AMBTR—Amblyomma triste, AMBAM—Amblyomma americanum, AMBCA—Amblyomma cajennense, RHIPU—Rhipicephalus pulchellus. Table 2A-C. Binding characteristics of tick CKBPs previously disclosed (PCT/GB2017/050563 and [17]). All members of the human chemokine family[164] are listed in column 1. Binding to human chemokines was determined for 14 tick CKBPs using biolayer interferometry (BLI) with calculated Kd shown as Molar (Moles/Litre). […] Association, equilibrium and dissociation data were analysed using Octet software to create corresponding fitted curves, and used to calculate Kd. For yeast surface display, (YSD) background fluorescence was controlled for by using either an empty vector or by omitting the chemokine (i.e. using streptavidin-Alexa647 alone). An arbitrary threshold of >3 fold over background mean fluorescence intensity was chosen to describe confirmed re-tests. Where binding was detected data are indicated as “YES”. […] Data was analysed using GraphPad Prism to determine IC50, which is shown as Molar (Moles/Litre). […]

Consider 2 molecules from patent US20200247855A1, “THERAPY AND DIAGNOSTICS” (OXFORD UNIVERSITY INNOVATION LIMITED, priority 2017, published 2020).

For orientation: IC50 means the point on the concentration scale where inhibition reaches its midpoint.

Positions of bridges follow the written chain, without caps; N, C: chain ends. Residues, ends and D or L forms follow the SMILES beside them.

Sequence of CCL7_HUMAN (P80098 24-99): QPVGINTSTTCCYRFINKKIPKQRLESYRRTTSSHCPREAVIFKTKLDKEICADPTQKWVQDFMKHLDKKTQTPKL
T3 sequence (P13500 24-99): as the sequence (P13500 24-99) above

For `CC(C)[C@@H]1NC(=O)[C@@H]2CCCN2C(=O)[C@H](CCCCN)NC(=O)[C@H](Cc2ccccc2)NC(=O)[C@H](Cc2ccccc2)NC(=O)[C@H](CC(=O)O)NC(=O)[C@H](CCC(=O)O)NC(=O)[C@H](Cc2ccc(O)cc2)NC(=O)[C@H](CC(=O)O)NC(=O)[C@H](CCC(=O)O)NC(=O)[C@H](CC(=O)O)NC(=O)[C@H](CCC(=O)O)NC(=O)[C@H](Cc2ccc(O)cc2)NC(=O)CSC[C@@H](C(=O)N[C@@H](Cc2ccc(O)cc2)C(=O)N[C@@H](Cc2ccccc2)C(N)=O)NC(=O)[C@H]([C@@H](C)O)NC1=O` [BK1.2] ({CH2CO}-YEDEDYEDFFKPVTCYF-NH2; thioether N-15), the “Effect on CCL2-induced THP-1 cell migration” value in assay [1] is “stronger effect”. For the same molecule, the “Effect on CCL3-induced THP-1 cell migration” value in assay [2] is recorded as “significantly reduced”. The “Effect on CCL7-induced THP-1 cell migration” value in assay [3] is on record as “stronger effect”. In assay [4], the “Effect on CCL8-induced THP-1 cell migration” value is “reduced CCL8 induced cell migration to baseline levels”. In addition, the half-inhibitory concentration (IC50) in assay [5] is 6.3 µM.
Consider “P1124_IXORI: novel CXC-binding tick CKBP, Ixodes ricinus (DSKGTSDSQDSTKSIKVDFCETNCTKTDGGWTGCTGDCICVSVGDSIEGRCMDFG; listed as Ixodes ricinus)”, for which, in assay [6], the “Chemokines bound in yeast surface display and % cells over threshold fluorescence: CXCL9_HUMAN” value is “CXCL9_HUMAN 31%”.
